One test has as its system A. hydrophila (Gram−). Nature of the test: Microdilution antimicrobial activity (MIC/IC50). It is filed as cell-based. The protocol:
(§1) The peptides of the invention were also obtained by chemical synthesis using methods known to those skilled in this technical field. The antimicrobial activity of the peptides was determined by the microdilution method. To determine the minimum inhibitory concentration (MIC), each peptide was serially diluted 1:2. Ten microliters of each diluted peptide were incubated with 90 μL of the bacteria or yeast suspension (5×10^5 CFU (colony forming units) per mL) in Mueller Hinton broth (bacteria) or Sabouraund broth (fungi) and incubated for 18 h at 28° C. (for fish pathogens and fungi) or 37° C. (for mammalian pathogens). The MIC is defined as the lowest peptide concentration at which inhibition of bacterial growth occurs. All assays were performed in triplicate, and culture medium (without microorganism) and microorganisms to which no peptide was added were used as controls.

Test [1] has as its system Bacillus subtilis (Gram+). Kind of test: Microdilution antimicrobial activity (MIC/IC50). In kind it is cell-based. The following applies: for IC50: read-out: IC50 (peptide concentration that produces 50% of bacterial growth inhibition). On the procedure: as §1
Test [2] concerns Candida albicans (fungus). Kind of test: Microdilution antimicrobial activity (MIC/IC50). It is filed as cell-based. The following applies: for MIC: Sabouraund broth, 28° C.; for IC50: read-out: IC50 (peptide concentration that produces 50% of bacterial growth inhibition). On the procedure:
as §1

The next test relates to E.coli (Gram−). Nature of the test: Microdilution antimicrobial activity (MIC/IC50). It is filed as cell-based. The following applies: for IC50: read-out: IC50 (peptide concentration that produces 50% of bacterial growth inhibition). On the procedure:
as §1

The test system of test [3] is Edwardsiella tarda (Gram−). Nature of the test: Microdilution antimicrobial activity (MIC/IC50). It is filed as cell-based. The following applies: for IC50: read-out: IC50 (peptide concentration that produces 50% of bacterial growth inhibition). The protocol: as §1
Test [4] relates to Pseudomonas aeuroginosa (Gram−). Nature of the test: Microdilution antimicrobial activity (MIC/IC50). The following applies: for IC50: read-out: IC50 (peptide concentration that produces 50% of bacterial growth inhibition). In kind it is cell-based. The protocol:
as §1

Test [5] relates to Staphylococcus aureus (Gram+). Nature of the test: Microdilution antimicrobial activity (MIC/IC50). It is filed as cell-based. The following applies: for MIC: 18 h, Mueller Hinton broth; for IC50: read-out: IC50 (peptide concentration that produces 50% of bacterial growth inhibition). On the procedure: as §1
The test system of the next test is Vibrio sp. (Gram−). Nature of the test: Microdilution antimicrobial activity (MIC/IC50). The following applies: for IC50: read-out: IC50 (peptide concentration that produces 50% of bacterial growth inhibition). It is filed as cell-based. On the procedure:
as §1

For another test, the system named is Aeromonas hydrophila. Kind of test: Resistance to A. hydrophila challenge in tilapia, peptides by intraperitoneal injection. It is filed as in vivo, tilapia (O. niloticus). The following applies: LD50 challenge, mortality recorded 7 days, compared to PBS group. The protocol:
We proceeded to evaluate the utility of antimicrobial peptides to enhance disease resistance in vivo. In a first test, we used 130 tilapias (O. niloticus) with a body weight of 10 g, which were randomly distributed in 13 experimental groups of ten animals per group. This assay was performed in order to determine the minimum time of treatment required to enhance the survival of fish against challenge with A. hydrophila. Each peptide was administered at a concentration of 1 μg per fish by intraperitoneal injection, for 2, 4, 8 and 15 days. An additional group was placed which PBS was administered as a control. The experimental groups were:
After the time of peptide administration, we performed a challenge test by intraperitoneal injection of the median lethal dose (LD50) of A. hydrophila, and mortality was recorded during 7 days. We calculated the relative percent of survival (RPS) as: RPS (%)=(% mortality controls−% mortality treated)/(% mortality controls)×100
A second test was performed to determine the optimal dose of peptide required to increase the survival of the fish following challenge with A. hydrophila. We used 130 tilapias (O. niloticus), with a body weight of about 10 g, which were randomly distributed in 13 experimental groups of 10 animals each. Each peptide was administered at a concentration of 0.5, 1, 5 and 10 μg per fish for 15 days. The experimental groups were:
After 15 days of peptide administration, we performed a challenge test by is intraperitoneal injection of the LD50 of A. hydrophila, and mortality was recorded during 7 days. RPS was calculated as described above.

The conditions of test [6]: read-out: EC50 (LPS binding/neutralization); 0.5 EU/ml LPS, 37° C., 30 min, LAL. The protocol: Besides the antimicrobial activity and the possibility of increase disease resistance, we studied the ability of antimicrobial peptides of the present invention to neutralize LPS, by the Limulus amebocyte lysate (LAL) test. This assay detects the presence of free LPS unneutralized. Various concentrations of peptides were incubated with 0.5 EU/ml of LPS at 37° C. for 30 min. LPS alone was used as positive control of the assay. Subsequently, were added 100 μL of the mixture to equal volume of LAL reagent. The kinetic of the turbidity was measured using the equipment Tube Reader ATi-321 (Lab Kinetics, UK).

Test [7] has as its system OVA. Nature of the test: Cytokine secretion by OVA-stimulated splenocytes of immunized mice, ELISA. In kind it is in vivo, BALB/c mice. On the procedure:
FIG. 8. IFN-γ secretion by spleen cells isolated from immunized animals. […] Bars represent the concentration of IFN-γ±standard deviation (n=5). Statistical analysis of the data was performed by ANOVA test and Bonferroni's multiple comparison test (*: p<0.05, ***:p<0.001).
Animals were immunized on days 0 and 14, and blood extractions were performed on days 0, 14 and 21. The serums of animals were used for determination of specific antibody titers (total IgG, IgG1 and IgG2a). At 59 days from the beginning of the experiment was extracted the spleen from the mice to determine the cellular immune response against the antigen OVA. The spleen was extracted under aseptic conditions and the splenocytes were isolated and were seeded 2.5×10^5 cells, at a cell concentration of 2×10^6 cells/mL in 96-well round bottom plate. Cells were stimulated with Concanavalin A (5 μg/ml) or OVA (10 μg/mL) and incubated at 37° C., 5% CO2 for 4 days. Culture supernatants were collected and used for analysis of the levels of interleukin-4 and interferon-γ by ELISA.

The subject of test [8] is OVA. Nature of the test: Co-immunization with OVA in mice, second immunization schedule, antibody titers by ELISA. In kind it is in vivo, BALB/c mice. The protocol: FIG. 7. Titers of total immunoglobulin G (IgG) (A), IgG1 and IgG2a (B) induced in mice by immunization with OVA co-administered with the peptides Oreochromicin I, Oreochromicin II and Oreochromicin III. Male Balb/c mice (8/group) were immunized by intraperitoneal injection on days 0 and 14 with OVA alone (5 μg/animal) or in combination with peptides at the doses of 0.238×10^20 molecules/animal (equivalent to 0.1, 0.12 and 0.14 μg/animal for Oreochromicina I, II and III, respectively) and 2.38×10^20 molecules/animal (equivalent to 1, 1.2 and 1.4 μg/animal for Oreochromicina I, II and III, respectively). The negative control group was injected with 0.1 mL of PBS. The OVA-specific humoral immune response (total IgG) was tested at 14 and 21 days after the first immunization. IgG1 and IgG2a antibody titers were analyzed at 21 days after the first immunization. The OVA-specific antibody titers were determined by ELISA. (A) Total IgG titers. Bars represent the IgG titer standard error (n=8). Statistical analysis was performed using a Kruskal-Wallis test and the Dunn multiple comparison test. Asterisks represent significant differences with the PBS group (* indicates p<0.05, ***indicates p<0.001). (B) IgG1 and IgG2a titers. Bars represent the antibody titer±standard error (n=8). Statistical analysis was performed using Mann Whitney test (*denotes p<0.05).
64 BALB/c male mice were selected, which were 6 weeks old, and were separated into 8 experimental groups of 8 mice each. Administration of the immunogens was is conducted by intraperitoneal injection in a volume of 0.1 mL. The antimicrobial peptides were administered in equimolar amounts (0.238×10^20 molecules and 2.38×10^20 molecules). The experimental groups were:
Animals were immunized on days 0 and 14, and blood extractions were performed on days 0, 14 and 21. The serums of animals were used for determination of specific antibody titers (total IgG, IgG1 and IgG2a). At 59 days from the beginning of the experiment was extracted the spleen from the mice to determine the cellular immune response against the antigen OVA. […]

Another test has as its system MY32. Nature of the test: Co-immunization with MY32 antigen in tilapia, IgM titers by ELISA. In kind it is in vivo, tilapia (O. niloticus). The following applies: MY32 1 μg/g + peptide 10 μg/animal, adjuvanted in Montanide 888; p<0.05. The protocol:
FIG. 9. IgM titers induced by immunization of tilapia (O. niloticus) with MY32 protein co-administered with the antimicrobial peptide Oreochromicin I. Fish (10 fish/group) were immunized by intraperitoneal injection on days 0 and 14. The negative control group was injected with 0.3 mL of PBS. The humoral immune response specific for MY32 was analyzed at 14, 21 and 28 days after the first immunization. The IgM antibody titers specific for MY32 were determined by ELISA. Bars represent the IgM titer±standard error (n=10). Statistical analysis of the data was performed by ANOVA and the Newman-Keuls multiple comparison test (*indicates p<0.05).
To assess the ability of the peptide Oreochromicin I as molecular adjuvant in tilapia was used as vaccine antigen the protein MY32, previously known (Carpio et al. (2011) Vaccine 29: 2810-2820).
Six experimental groups were formed of 10 tilapias (O. niloticus) each with an s average weight of 45 g. The route of administration was intraperitoneal, the immunogen was applied in an injection volume of 0.3 mL. The experimental groups were:
The animals were immunized on days 0 and 14, and blood extractions were performed on days 0, 14, 21 and 28. The serums of the animals were used for the determination of IgM specific antibody titers.

Take “FIHHIIGGLFSAGKAIHRLIRRRRR [Oreochromicin II, also recombinant or chemically synthesized]”: the MIC result in the test on A. hydrophila (Gram−) is “MIC = 160 μM”; in test [1], “MIC = 1.7 μM”; in [2], “MIC = 26.7 μM”; against E.coli (Gram−), “MIC = 5 μM”; in test [3], “MIC = 20 μM”; in test [4], “MIC = 6.67 μM”. For the same sequence, the MIC entry in [5] was “MIC = 5 μM”; with Vibrio sp. (Gram−) it was “MIC = 15 μM”. Also, the IC50 with A. hydrophila (Gram−) (read-out: IC50 (peptide concentration that produces 50% of bacterial growth inhibition)) amounted to 30.4 µM; in [1], 589 nM; in test [2], 12.9 µM; in the test with E.coli (Gram−), 2290 nM; in [3], 2.08 µM; in test [4] it was 3.75 µM. Further, the IC50 in test [5] came to 2020 nM; in the test on Vibrio sp. (Gram−), 2.5 µM. The “increase in survival (RPS, relative percent of survival)” value with Aeromonas hydrophila (1 μg per fish i.p. for 8 days) worked out at 48%. Further, in test [6], the EC50 was determined as 1410 nM. The “levels of secretion of IFN-γ vs OVA or PBS alone” value in the test with OVA [7] (splenocytes stimulated with OVA, peptide 1.2 μg/animal, p<0.05) was “significantly higher”.

With “FIHHIIGGLFSVGKHIHGLIHGH [Oreochromicin I, also recombinant or chemically synthesized]”, the MIC entry is reported as “Did not inhibit” in the test with A. hydrophila (Gram−); “MIC = 3 μM” in [1]; “MIC = 20 μM” in test [2]; “MIC = 6.7 μM” in the test on E.coli (Gram−); “MIC = 160 μM” in [3]; “MIC = 35 μM” in [4]. In addition, the MIC result in [5] is listed as “MIC = 5 μM”; against Vibrio sp. (Gram−), “MIC = 80 μM”. The IC50 in [1] is 1370 nM; in [2], 10.3 µM; with E.coli (Gram−), 2960 nM; in test [3] it was 11.1 µM; in [4], 29.4 µM; in test [5], 2800 nM. Also, the IC50 in the test with Vibrio sp. (Gram−) is 7.45 µM. The “increase in survival (RPS, relative percent of survival)” value in the test on Aeromonas hydrophila (1 μg per fish i.p. for 15 days) is on record as 45%. Further, the EC50 in test [6] stood at 1230 nM. In addition, the “titers of specific IgG2a against OVA vs OVA alone” value in the test with OVA [8] (OVA 5 μg + peptide 1 μg/animal, 21 days after first immunization, p<0.05) is given as “significantly greater”. The “specific total IgG titer to OVA vs negative control group” value with OVA [8] (OVA 5 μg + peptide 1 μg/animal, p<0.001) is given as “statistically superior”. Moreover, the “specific IgM titer against MY32 vs PBS, MY32 and MY32 + peptide 10 μg/fish” value in the test on MY32 is “statistically superior”.

For the sequence “IWDAIFHGAKHFLHRLVNPGGKDAVKDVQQKQ [Oreochromicin III, also recombinant or chemically synthesized]”, the MIC result against A. hydrophila (Gram−) is recorded as “Did not inhibit”; in [1], “MIC = 106 μM”; in test [2], “MIC = 40 μM”; against E.coli (Gram−), “Did not inhibit”; in test [3], “MIC = 160 μM”; in [4], “Did not inhibit”. For the same sequence, in test [5], the MIC entry is recorded as “Did not inhibit”. Moreover, the IC50 is 19200 nM in test [1], 14.1 µM in [2], 37 µM in test [3] and 67.4 µM in the test on Vibrio sp. (Gram−). For the same sequence, in the test with Aeromonas hydrophila (1 μg per fish i.p. for 15 days), the “increase in survival (RPS, relative percent of survival)” value amounted to 45%. For the same sequence, the EC50 in [6] was 2990 nM. In the test on OVA [8] (OVA 5 μg + peptide 1.4 μg/animal, p<0.05), the “total IgG titers compared to the negative control group” value was “statistically significant differences”. Moreover, in the test on OVA [7] (splenocytes stimulated with OVA 10 μg/mL, dose dependent, p<0.001), the “levels of IFN-γ vs OVA or PBS alone” value is on record as “significantly higher”.

The values are drawn from patent publication US9549978B2, “Amino acid sequences for controlling pathogens” (CENTRO DE INGENIERIA GENETICA Y BIOTECHNOLOGIA, priority 2011, dated 2017).
